Laboratory results as given in patent publication US10167322B2, “Engineered albumin binding polypeptide” (AFFIBODY AB, priority 2013, dated 2019).
Several values for one entry are separate records, joined by “and”; a condition that tells them apart may be missing. Equal entries are not always repeated. Where two headings read alike, the source gives them in different places. One block for each substance: values may come before it. Starred links: 1 amine or outer side, 2 acyl side, 3 side chain; linkers in the order of their positions; H or OH if unused. Positions of bridges follow the written chain, without caps; N, C: chain ends. No end group written: not given here. Pyridine(2,6-diCH2) = c1cc(C[*:1])nc(C[*:2])c1; mXylylene = c1cc(C[*:1])cc(C[*:2])c1; oXylylene = c1ccc(C[*:2])c(C[*:1])c1; X1 = O=C(C[*:1])[*:2]

Assays:
[1] = target: T1, human serum albumin (HSA) (Homo sapiens, UniProt P02768); experiment: SPR biosensor (ProteOn XPR36) screening of binding to immobilized HSA; details: 50 nM polypeptide, 2500 RU immobilized HSA, 25 °C
Experimental: Biosensor binding analyses were performed on a ProteOn XPR36 instrument (Bio-Rad) at 25° C. using PBST (150 mM NaCl, 8 mM Na2HPO4, 2 mM NaH2PO4, 0.005% Tween20, pH 7.4) as running buffer at a flow rate of 50 μl min^−1. An injection of 30 μl of 20 mM HCl at a flow rate of 100 μl min^−1 was used for chip regeneration. In a screening experiment, the binding of all polypeptide variants to human serum albumin (HSA) was investigated. The proteins were diluted to 50 nM in running buffer and injected over a chip surface with 2500 RU of immobilized HSA. The association was studied for 300 s and the dissociation was followed for 7200 s (2 h). For data analysis, all samples were double referenced; the signal from a blank surface was first subtracted from the signal from the respective protein, and secondly the signal from an injection of PBST (running buffer) over the HSA surface was subtracted.

[2] = target: T1, human serum albumin (HSA); experiment: SPR biosensor (ProteOn XPR36) HSA binding kinetics, 1:1 Langmuir fit; details: for comparison only; for kon / koff: triplicate, mean (±SD), relative values; for kon: read-out: ka (association rate constant); for koff: read-out: kd (dissociation rate constant)
Experimental: The HSA binding kinetics of PEP18049_CL and the reference protein PEP07830 were further studied using a sensor chip with HSA immobilized on three different surfaces to between 1100 RU and 1600 RU. The proteins were diluted in running buffer (0.8, 1.6, 3.3, and 6.6 nM for PEP18049_CL and 1.0, 2.0, 4.0 and 8.0 nM for PEP07830) and injected over the three HSA surfaces and thus giving binding curves in triplicate. The association time was 300 s and the dissociation was followed for 36 000 s (10 h).
The kinetic parameters of the binding of PEP18049_CL and the reference protein PEP07830 to HSA were obtained from fitting the obtained sensorgrams to a 1:1 Langmuir binding model using the ProteOn Manager software version 3.1.0.6 (Bio-Rad). The average association rate constant (ka (M^−1 s^−1) and dissociation rate constant (kd (s^−1)) with standard deviation were calculated. From the average ka and the kd the dissociation equilibrium constant (KD (M)) was calculated (KD=kd/ka).

pepsin = target: T2, pepsin (Sus scrofa, UniProt P00791); experiment: Protease degradation analysis with pepsin (RP-HPLC of intact polypeptide); format: in vitro ADME, porcine; details: for AUC increase / resistance towards degradation by pepsin compared to PEP07830: 0.5 μg ml^−1 pepsin, 0-60 min; for AUC increase / resistance towards degradation by pepsin compared to PEP07830 / Resistance towards degradation by pepsin, screening: 37 °C; for Resistance towards degradation by pepsin, screening: 2 μg ml^−1 pepsin, pH around 2.6, 10 min
T2 construct: purchased Sigma; host or cells: porcine gastric mucosa
T2 sequence (P00791 60-385): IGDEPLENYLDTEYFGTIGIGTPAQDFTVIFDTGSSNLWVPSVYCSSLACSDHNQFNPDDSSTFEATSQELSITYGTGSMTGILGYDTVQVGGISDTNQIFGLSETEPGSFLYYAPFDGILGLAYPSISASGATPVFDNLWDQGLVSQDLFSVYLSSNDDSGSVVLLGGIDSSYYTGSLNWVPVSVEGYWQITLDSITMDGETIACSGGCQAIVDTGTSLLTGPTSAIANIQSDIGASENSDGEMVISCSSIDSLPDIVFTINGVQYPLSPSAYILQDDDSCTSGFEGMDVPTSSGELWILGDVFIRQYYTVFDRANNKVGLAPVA
Experimental: (§1) Proteolytic degradation was studied using pepsin (obtained from porcine gastric mucosa, 3200-4500 U mg^−1, Sigma) and a mixture of trypsin (obtained from bovine pancreas, ≈37 U mg^−1, Sigma) and chymotrypsin (obtained from bovine pancreas, ≥40 U mg^−1, Sigma). In all degradation experiments, 5 μg protein in PBS (pH 7.4) at a concentration of 0.25 mg ml^−1 (50 μM) was used.
5 μg of each variant was transferred to a microcentrifuge tube. 32 μl 10 mM HCl with pepsin at a concentration of 3.25 μg ml^−1 or 0.81 μg ml^−1, resulting in a pH around 2.6 and a final pepsin concentration of 2 μg ml^−1 to be used for screening experiment and 0.5 μg ml^−1 for studying the degradation over time. In the screening experiment, the samples were incubated for 10 min at 37° C. before the enzyme was inactivated by addition of 5 μl 0.1 M NaOH, which raised the pH to above 9, and then the sample was put on ice. A reference sample of each protein was inactivated with NaOH before pepsin was added to the tube.
The degradation over time was monitored for PEP18049_CL, PEP14788_CL_A and the reference polypeptide PEP07830 by incubation for 3, 6, 12, 30 or 60 min at 37° C. before inactivation with NaOH. Reference samples, inactivated with NaOH before the pepsin was added to the tube, were incubated likewise.
(§2) All samples were analyzed by RP-HPLC using an analytical column (Zorbax 300SB-C18, 4.6×150 mm, 3.5 μm particle size, Agilent Technologies) and a gradient of 15-45% solvent B (solvent A: 0.1% TFA-H2O; solvent B: 0.1% TFA-CH3CN) over 25 min at a flow rate of 1.2 ml min^−1 and LC-ESI-MS on a 6520 Accurate Mass Q-TOF LC/MS.
(§3) The elution peaks containing the intact polypeptides were integrated and the area under curve was calculated. The degradation experiments over time were performed in triplicates. The integrated area of each sample was normalized to the mean area of the t=0 samples of that variant, the mean and standard error of the mean were calculated for each time point.
(§4) To quantify the stability improvement of the crosslinked variants, the AUC (area under curve) from the normalized charts was calculated for the three investigated variants. The AUC of the crosslinked variants was then compared to the AUC of the reference polypeptide.

trypsin and chymotrypsin = experiment: Protease degradation analysis with trypsin and chymotrypsin (RP-HPLC of intact polypeptide); format: in vitro ADME, bovine; details: for AUC increase / resistance towards degradation by trypsin together with chymotrypsin compared to PEP07830 / Resistance towards degradation by trypsin and chymotrypsin, screening: 2.7 μg ml^−1 trypsin, 1.2 μg ml^−1 chymotrypsin, 37 °C; for AUC increase / resistance towards degradation by trypsin together with chymotrypsin compared to PEP07830: 0-60 min; for Resistance towards degradation by trypsin and chymotrypsin, screening: PBS pH 7.4, 10 min
Experimental: as §1
5 μg of each variant was transferred to a microcentrifuge tube. 32 μl PBS (pH 7.4) with trypsin at a concentration of 4.39 μg ml^−1 and chymotrypsin at a concentration of 1.95 μg ml^−1 was added to yield a final concentration of 2.7 μg ml^−1 of trypsin and 1.2 μg ml^−1 of chymotrypsin. In the screening experiment, the samples were incubated for 10 min at 37° C. before the enzyme was inactivated by addition of 3 μl 10% TFA and then the sample was put on ice. A reference sample of each protein was inactivated with TFA before the trypsin and chymotrypsin were added to the tube.
The degradation over time was monitored for PEP18049_CL, PEP14788_CL_A and the reference polypeptide PEP07830 by incubation for 3, 6, 12, 30, or 60 min at 37° C. before inactivation with TFA. As above, reference samples, inactivated with TFA before trypsin and chymotrypsin were added to the tube, were incubated likewise.
as §2, §3, §4

[3] = Circular dichroism variable temperature measurement (melting temperature); format: physicochemical; details: CD at 221 nm, 20-90 °C, 50 μM in PBS pH 7.4
Experimental: Polypeptides were dissolved in PBS (pH 7.4) to a concentration of 50 μM (approximately 0.25 mg ml^−1) and CD spectra and melting curves were collected on a Jasco J-810 spectropolarimeter (Jasco) using a cell with an optical path-length of 1 mm. Variable temperature measurements, VTM, were used to determine Tm. In these measurements, the […] was measured at 221 nm from 20° C. to 90° C., with a temperature slope of 5° C. min^−1. The secondary structure of each variant was analyzed by recording a spectrum ranging from 250 to 195 nm at 20° C., both before and after VTM.

[4] = human, HSA immobilized on SPR sensor chip (ProteOn XPR36)
[5] = LC-ESI-MS of degradation products

Substance: Ac-LAEAKEAANAELDSYGCSDFYKRLIDKAKTVEGVEALKDAILAAKP-NH2 (linker 17-45 via X1) [PEP18049_CL]
- HSA binding in screening experiment [1]: fast on-rate and a two phase-like dissociation
- kon [2, 4]: 620000 M⁻¹ s⁻¹
- koff [2, 4]: 1.5e-05 s⁻¹
- Kd ([2]; triplicates): ~0.024 nM and 0.024 nM
- AUC increase / resistance towards degradation by pepsin compared to PEP07830 (pepsin): 17 fold
- Resistance towards degradation by pepsin, screening (pepsin): increased resistance towards degradation
- AUC increase / resistance towards degradation by trypsin together with chymotrypsin compared to PEP07830 (trypsin and chymotrypsin): 5 fold
- Resistance towards degradation by trypsin and chymotrypsin, screening (trypsin and chymotrypsin): increased resistance towards degradation
- Tm (melting temperature) [3]: 63 °C

Substance: LAEAKEAANAELDSYGCSDFYKRLIDKAKTVEGVEALKDAILAACP-NH2 (linker 17-45 via Pyridine(2,6-diCH2)) [PEP14788_CL_E]
- Resistance towards degradation by pepsin, screening (pepsin): no significant difference between these variants
- Resistance towards degradation by trypsin and chymotrypsin, screening (trypsin and chymotrypsin): no significant difference between these variants

Substance: LAEAKEAANAELDSYGCSDFYKRLIDKAKTVEGVEALKDAILAACP-NH2 (linker 17-45 via mXylylene) [PEP14788_CL_B]
- Resistance towards degradation by pepsin, screening (pepsin): no significant difference between these variants
- Resistance towards degradation by trypsin and chymotrypsin, screening (trypsin and chymotrypsin): no significant difference between these variants

Substance: PEP18051_CL: SEQ ID NO:1770 (PEP18051), control polypeptide, crosslinked Cys1-Lys29 (CAEAKEAANAELDSYGVSDFYKRLIDKAKTVEGVEALKDAILAALP; Cys1-Lys29 crosslink; Engineered albumin binding polypeptide)
- HSA binding in screening experiment [1]: slower on-rate, but also seemed to have a very slow off-rate indicating a high affinity for HSA

Substance: PEP18052_CL: SEQ ID NO:1771 (PEP18052), control polypeptide, double crosslinked (LAEAKEAANAELDSYGCSDFYKRLIDKCKTVEGVEALKDAILAAKP; double crosslinked; Engineered albumin binding polypeptide)
- HSA binding in screening experiment [1]: completely lost their affinity for HSA

Substance: PEP18053_CL: SEQ ID NO:1772 (PEP18053), control polypeptide, double crosslinked (CAEAKEAANAELDSYGCSDFYKRLIDKAKTVEGVEALKDAILAAKP; double crosslinked; Engineered albumin binding polypeptide)
- HSA binding in screening experiment [1]: weak binding

Now from value to substance, other results behind:

- AUC increase / resistance towards degradation by pepsin compared to PEP07830 (pepsin): 2.4 fold
- AUC increase / resistance towards degradation by trypsin together with chymotrypsin compared to PEP07830 (trypsin and chymotrypsin): 1.4 fold
Substance: LAEAKEAANAELDSYGCSDFYKRLIDKAKTVEGVEALKDAILAACP-NH2 (linker 17-45 via oXylylene) [PEP14788_CL_A]
- Resistance towards degradation by pepsin, screening (pepsin): no significant difference between these variants
- Resistance towards degradation by trypsin and chymotrypsin, screening (trypsin and chymotrypsin): no significant difference between these variants

- Kd ([2]; human, KD=kd/ka from average ka and kd): 0.021 nM
- kon ([2]; human): 190000 M⁻¹ s⁻¹
- koff ([2]; human): 4.1e-06 s⁻¹
- Kd ([2]; human, triplicates): ~0.021 nM
- Peptide bond rapidly cleaved by pepsin (major degradation products) (pepsin; [5]): between Leu42 and Ala43
- Peptide bond most susceptible for cleavage by trypsin and chymotrypsin (trypsin and chymotrypsin; [5]): between Tyr21 and Lys22
Substance: LAEAKEAANAELDSYGVSDFYKRLIDKAKTVEGVEALKDAILAALP-NH2 (C-terminus assumed) [PEP07830, reference compound]

- HSA binding in screening experiment [1]: completely lost their affinity for HSA
Substance: PEP18050_CL: SEQ ID NO:1769 (PEP18050), control polypeptide, crosslinked Lys5-Cys28 (LAEAKEAANAELDSYGVSDFYKRLIDKCKTVEGVEALKDAILAALP; Lys5-Cys28 crosslink; Engineered albumin binding polypeptide)
